# Experimental data as given in patent US9795140B2, “Molecules having pesticidal utility, and intermediates, compositions, and processes, related thereto” (priority 2015, dated 2017).
# Columns and labels:
# Assay type in all cases: in vivo
# [1] = test system: Beet Armyworm (Spodoptera exigua, LAPHEG); experiment: Bioassay on Beet Armyworm (BAW), 128-well diet tray assay; details: 168 h, 50 μg/cm^2 on artificial diet, second instar larvae, 25° C., five to seven days, average of eight wells, read-out: BAW % Control (or Mortality) rating
# Description: (§1) Certain molecules disclosed in this document were tested against BAW and CL using procedures described in the following examples. In the reporting of the results, the “BAW & CL Rating Table” was used (See Table Section).
# Bioassays on BAW were conducted using a 128-well diet tray assay. One to five second instar BAW larvae were placed in each well (3 mL) of the diet tray that had been previously filled with approximately 1.5 mL of artificial diet to which 50 μg/cm^2 of the test molecule (dissolved in 50 μL of 90:10 acetone-water mixture) had been applied (to each of eight wells) and then allowed to dry. Trays were covered with a clear self-adhesive cover, vented to allow gas exchange, and held at 25° C., 14:10 light-dark for five to seven days. Percent mortality was recorded for the larvae in each well; activity in the eight wells was then averaged. The results are indicated in the table entitled “Table ABC: Biological Results” (See Table Section).
# [2] = test system: Cabbage Looper (Trichoplusia ni, TRIPNI); experiment: Bioassay on Cabbage Looper (CL), 128-well diet tray assay; details: 168 h, 50 μg/cm^2 on artificial diet, second instar larvae, 25° C., five to seven days, average of eight wells, read-out: CL % Control (or Mortality) rating
# Description: as §1
# Bioassays on CL were conducted using a 128-well diet tray assay, one to five second instar CL larvae were placed in each well (3 mL) of the diet tray that had been previously filled with 1 mL of artificial diet to which 50 μg/cm^2 of the test molecule (dissolved in 50 μL of 90:10 acetone-water mixture) had been applied (to each of eight wells) and then allowed to dry. Trays were covered with a clear self-adhesive cover, vented to allow gas exchange, and held at 25° C., 14:10 light-dark for five to seven days. Percent mortality was recorded for the larvae in each well; activity in the eight wells was then averaged. The results are indicated in the table entitled “Table ABC: Biological Results” (See Table Section).
# [3] = test system: Yellow Fever Mosquito (Aedes aegypti, AEDSAE); experiment: Bioassay on Yellow Fever Mosquito (YFM) larvae, 96-well plate; details: about 1 day-old larvae, room temperature, 3 days, scored on mortality
# Description: Certain molecules disclosed in this document were tested against YFM using procedures described in the following paragraph. In the reporting of the results, the “GPA & YFM Rating Table” was used (See Table Section).
# Master plates containing 400 μg of a molecule dissolved in 100 μL of dimethyl sulfoxide (DMSO) (equivalent to a 4000 ppm solution) are used. A master plate of assembled molecules contains 15 μL per well. To this plate, 135 μL of a 90:10 water/acetone mixture is added to each well. A robot is programmed to dispense 15 μL aspirations from the master plate into an empty 96-well shallow plate (“daughter” plate). There are 6 reps (“daughter” plates) created per master. The created “daughter” plates are then immediately infested with YFM larvae.
# The day before plates are to be treated, mosquito eggs are placed in Millipore water containing liver powder to begin hatching (4 g. into 400 mL). After the “daughter” plates are created using the robot, they are infested with 220 μL of the liver powder/larval mosquito mixture (about 1 day-old larvae). After plates are infested with mosquito larvae, a non-evaporative lid is used to cover the plate to reduce drying. Plates are held at room temperature for 3 days prior to grading. After 3 days, each well is observed and scored based on mortality. The results are indicated in the table entitled “Table ABC: Biological Results” (See Table Section).
Structure (SMILES),mortality at 50 µg/cm2 [1],mortality at 50 µg/cm2 [2],YFM % Control (or Mortality) rating [3]
"O=C(NCC(F)(F)F)c1cc(NC(=O)[C@H]2[C@H](c3cc(F)cc(C(F)F)c3)C2(Cl)Cl)ccc1Cl (relative stereo) [F130, 2-Chloro-5-(trans-2,2-dichloro-3-(3-(difluoromethyl)-5-fluorophenyl)cyclopropane-1-carboxamido)-N-(2,2,2-trifluoroethyl)benzamide]",50 to 100%,50 to 100%,A (80-100)
"O=C(NCC(F)(F)F)c1cc(NC(=O)[C@H]2[C@H](c3ccc(C(F)(F)F)c(Cl)c3)C2(Cl)Cl)ccc1Cl (relative stereo) [F116, 2-Chloro-5-(trans-2,2-dichloro-3-(3-chloro-4-(trifluoromethyl)phenyl)cyclopropane-1-carboxamido)-N-(2,2,2-trifluoroethyl)benzamide]",50 to 100%,50 to 100%,A (80-100)
"O=C(NCC(F)(F)C(F)(F)C(F)(F)F)c1cc(NC(=O)[C@H]2[C@H](c3cc(Cl)cc(Cl)c3)C2(Cl)Cl)ccc1Cl (relative stereo) [F61, trans-2-Chloro-5-(2,2-dichloro-3-(3,5-dichlorophenyl)cyclopropane-1-carboxamido)-N-(2,2,3,3,4,4,4-heptafluorobutyl)benzamide]",50 to 100%,50 to 100%,D (No activity noticed in this bioassay)
"O=C(NCCF)c1cc(NC(=O)[C@H]2[C@H](c3cc(Cl)cc(Cl)c3)C2(Cl)Cl)c(Cl)cc1Cl (relative stereo) [F99, trans-2,4-Dichloro-5-(2,2-dichloro-3-(3,5-dichlorophenyl)cyclopropane-1-carboxamido)-N-(2-fluoroethyl)benzamide]",50 to 100%,50 to 100%,A (80-100)
"CCNC(=O)c1cc(NC(=O)[C@H]2[C@H](c3cc(Cl)c(OC)c(Cl)c3)C2(Cl)Cl)ccc1Cl (relative stereo) [F85, trans-2-Chloro-5-(2,2-dichloro-3-(3,5-dichloro-4-methoxyphenyl)cyclopropane-1-carboxamido)-N-ethylbenzamide]",50 to 100%,50 to 100%,B (More than 0-Less than 80)
"O=C(NCC(F)(F)F)c1cc(NC(=O)[C@H]2[C@H](c3cc(Cl)cc(Cl)c3)C2(Cl)Cl)c(Cl)cc1Cl (relative stereo) [F100, trans-2,4-Dichloro-5-(2,2-dichloro-3-(3,5-dichlorophenyl)cyclopropane-1-carboxamido)-N-(2,2,2-trifluoroethyl)benzamide]",50 to 100%,0%,A (80-100)
"C[C@H](CS(=O)(=O)CCC(F)(F)F)NC(=O)c1cc(NC(=O)C2C(c3cc(Cl)cc(Cl)c3)C2(Cl)Cl)ccc1Cl (stereo in doubt) [PF4, trans-2-Chloro-5-(2,2-dichloro-3-(3,5-dichlorophenyl)cyclopropane-1-carboxamido)-N—((R)-1-((3,3,3-trifluoropropyl)sulfonyl)propan-2-yl)benzamide]",50 to 100%,50 to 100%,A (80-100)
"CCOCCNC(=O)c1cc(NC(=O)[C@H]2[C@H](c3cc(Cl)cc(Cl)c3)C2(Cl)Cl)ccc1Cl (relative stereo) [F54, trans-2-Chloro-5-(2,2-dichloro-3-(3,5-dichlorophenyl)cyclopropane-1-carboxamido)-N-(2-ethoxyethyl)benzamide]",50 to 100%,50 to 100%,B (More than 0-Less than 80)
"O=C(NCCC(F)(F)C(F)(F)F)c1cc(NC(=O)[C@H]2[C@H](c3cc(Cl)cc(Cl)c3)C2(Cl)Cl)ccc1Cl (relative stereo) [F60, trans-2-Chloro-5-(2,2-dichloro-3-(3,5-dichlorophenyl)cyclopropane-1-carboxamido)-N-(3,3,4,4,4-pentafluorobutyl)benzamide]",50 to 100%,50 to 100%,D (No activity noticed in this bioassay)
